Test results taken from US11466044B2 (WAYNE STATE UNIVERSITY, priority 2017, dated 2022).
In brackets after ≈: the same amount, converted by molar mass. Like-named read-outs stand apart in the source and are kept apart here.

Tests used:
E coli wild type = experiment: MIC by broth microdilution, wild type E coli; format: cell-based; conditions: for MIC: Escherichia coli
P aeruginosa = experiment: MIC by broth microdilution, P aeruginosa isolates; format: cell-based, Pseudomonas aeruginosa; conditions: strain AG220 Pseudomonas aeruginosa ATCC27853; for MIC: read-out: MIC AG220 P. aerugin
[1] = test system: Klebsiella pneumonia AG215; experiment: MIC by broth microdilution, Klebsiella pneumonia; format: cell-based; conditions: strain AG215 Klebsiella pneumonia; for MIC: Klebsiella pneumoniae, read-out: MIC AG215 K. pneumon
[2] = test system: Acinetobacter baumannii pittii AG225; experiment: MIC by broth microdilution, Acinetobacter baumannii; format: cell-based; conditions: strain AG225 Acinetobacter baumannii pittii
[3] = test system: Enterobacter cloacae AG290; experiment: MIC by broth microdilution, Enterobacter cloacae; format: cell-based; conditions: strain AG290 Enterobacter cloacae; for MIC: read-out: MIC AG290 E. cloacae
[4] = test system: E coli carrying specific resistance determinants; experiment: MIC by broth microdilution, E coli carrying specific resistance determinants; format: cell-based; conditions: for MIC: Escherichia coli
M. smegmatis SZ380 = experiment: MIC by broth microdilution, M. smegmatis; conditions: for MIC: Mycolicibacterium smegmatis, SZ380, read-out: MIC M. smegmatis SZ380 WT, SZ380 WT
M. abscessus = experiment: MIC by broth microdilution, M. abscessus; format: cell-based; conditions: for MIC: Mycobacteroides abscessus
[5] = ATCC25922, strain AG212 E. coli (ATCC25922), read-out: MIC AG212 E. coli
[6] = WT, Table 5 (Example 3), read-out: MIC E. coli WT
[7] = read-out: MIC E. coli pGB2armA armA
[8] = read-out: MIC E. coli pH434 AAC(2′)-Ib
[9] = ATCC19977, ATCC 19977 WT, Table 5 (Example 3), read-out: MIC M. abscessus ATCC 19977 WT
[10] = read-out: MIC M. abscessus clinical isolate
[11] = read-out: MIC M. abscessus engineered Δeis2

NCC1O[C@H](O[C@@H]2C(O)[C@H](O[C@@H]3C(O)[C@H](N)CC(N)[C@H]3O[C@H]3OC(CO)[C@@H](CC(O)CO)C(O)[C@@H]3N)O[C@@H]2CO)C(N)C(O)[C@@H]1O (stereo partly shown) [Compound 198]
MIC (E coli wild type; [5]): 8 µg/mL (≈ 11.9 µM)
MIC (P aeruginosa): 16 µg/mL (≈ 23.7 µM)
MIC [1]: 2 to 4 µg/mL (≈ 2.97 to 5.94 µM)
MIC [2]: 8 µg/mL (≈ 11.9 µM)
MIC [3]: 4 µg/mL (≈ 5.94 µM)

CCC(O)C1O[C@H](O[C@@H]2C(N)C[C@@H](N)C(O)[C@H]2O[C@@H]2O[C@H](CO)[C@H](O[C@H]3O[C@@H](CN)[C@@H](O)C(O)C3N)C2O)C(N)[C@@H](O)[C@@H]1O (stereo partly shown) [Compound 192]
MIC (E coli wild type; [5]): 4 µg/mL (≈ 6.21 µM)
MIC (P aeruginosa): > 64 µg/mL
MIC [1]: 2 µg/mL (≈ 3.11 µM)
MIC [2]: 8 µg/mL (≈ 12.4 µM)
MIC [3]: 2 to 4 µg/mL (≈ 3.11 to 6.21 µM)

CCC[C@@H]1C(CO)O[C@H](O[C@@H]2C(N)C[C@@H](N)C(O)[C@H]2O[C@@H]2O[C@H](CO)[C@H](O[C@H]3C[C@@H](CN)[C@@H](O)C(O)C3N)C2O)[C@@H](N)C1O (stereo partly shown) [Compound 116]
MIC AG160 E. coli WT (E coli wild type; clinical isolate AG160 WT, Table 2 (Example 4)): 1 µg/mL (≈ 1.56 µM)
MIC pH430 E. coli WT (E coli wild type; engineered strain pH430 WT, Table 2 (Example 4)): 0.5 μg/ml
MIC AG212 E. coli (E coli wild type; strain AG212 E. coli (ATCC25922)): 2 µg/mL (≈ 3.13 µM)
MIC AG220 P. aerugin (P aeruginosa): 4 µg/mL (≈ 6.25 µM)
MIC AG163 E. coli APH(3′)-I ([4]; clinical isolate AG163 APH(3′)-I, Table 2 (Example 4)): >64 µg/mL
MIC AG166 E. coli APH(3′)-II ([4]; clinical isolate AG166 APH(3′)-II, Table 2 (Example 4)): 2 to 4 µg/mL
MIC AG037 E. coli APH(3′)-III ([4]; engineered strain AG037 APH(3′)-III, Table 2 (Example 4)): >64 µg/mL
MIC pH421 E. coli APH(3′)-I ([4]; engineered strain pH421 APH(3′)-I, Table 2 (Example 4)): >32 μg/ml
MIC pH422 E. coli APH(3′)-II ([4]; engineered strain pH422 APH(3′)-II, Table 2 (Example 4)): 0.5 μg/ml
MIC pH423 E. coli APH(3′)-VI ([4]; engineered strain pH423 APH(3′)-VI, Table 2 (Example 4)): 1 μg/ml
MIC AG215 K. pneumon [1]: 1 µg/mL (≈ 1.56 µM)
MIC AG225 A. baumannii [2]: 2 µg/mL (≈ 3.13 µM)
MIC AG290 E. cloacae [3]: 1 µg/mL (≈ 1.56 µM)
MIC SZ380 M. smegmatis (M. smegmatis SZ380; strain SZ380 Mycobacterium smegmatis): 1 µg/mL (≈ 1.56 µM)

CCNC1[C@@H](OC2C(N)CC(N)[C@@H](O)[C@H]2O[C@@H]2O[C@H](CO)[C@H](O)C2O)OC(CN)[C@@H](O)[C@@H]1O (stereo partly shown) [Compound 037]
MIC (E coli wild type; [6]): 16 to 32 µg/mL (≈ 33.2 to 66.3 µM)
MIC [4, 7]: 64 to 128 µg/mL (≈ 133 to 265 µM)
MIC [4, 8]: 32 µg/mL (≈ 66.3 µM)
MIC (M. abscessus; [9]): 128 µg/mL (≈ 265 µM)
MIC (M. abscessus; [10]): > 128 µg/mL
MIC (M. abscessus; [11]): 32 µg/mL (≈ 66.3 µM)
MIC (M. smegmatis SZ380; Table 5 (Example 3)): 64 µg/mL (≈ 133 µM)

CCC[C@H]1C[C@H](N)[C@@H](O[C@@H]2C(N)C[C@@H](N)C(O)[C@H]2O[C@@H]2O[C@H](CNC=O)[C@H](O[C@H]3OC(CN)[C@@H](O)C(O)C3N)C2O)OC1CO (stereo partly shown) [Compound 190]
MIC (E coli wild type; [5]): 16 µg/mL (≈ 24.5 µM)
MIC (P aeruginosa): > 64 µg/mL
MIC [1]: 32 µg/mL (≈ 49 µM)
MIC [2]: > 64 µg/mL
MIC [3]: 16 to 32 µg/mL (≈ 24.5 to 49 µM)

CN[C@@H]1[C@@H](O)[C@@H](O[C@@H]2[C@@H](O)[C@H](O[C@H]3OC(CNCCO)=CC[C@H]3N)[C@@H](N)C[C@H]2NC(=O)[C@@H](O)CCN)OC[C@]1(C)O [PLZ, plazomicin, reference compound]
MIC (E coli wild type; [6]): 0.5 to 1 µg/mL (≈ 0.844 to 1.69 µM)
MIC ([4]; read-out: MIC E. coli AG106 AAC(2′)-Ia): 8 to 16 µg/mL (≈ 13.5 to 27 µM)
MIC [4, 7]: > 128 µg/mL
MIC [4, 8]: 8 µg/mL (≈ 13.5 µM)
MIC (M. abscessus; [9]): 1 µg/mL (≈ 1.69 µM)
MIC (M. abscessus; [10]): 4 µg/mL (≈ 6.75 µM)
MIC (M. abscessus; [11]): 1 µg/mL (≈ 1.69 µM)
MIC (M. smegmatis SZ380; Table 5 (Example 3)): 0.25 µg/mL (≈ 0.422 µM)

NCC1O[C@H](O[C@@H]2C(O)[C@H](O[C@@H]3C(O)[C@H](N)CC(N)[C@H]3O[C@H]3OC(CO)[C@@H](CCO)C(O)[C@@H]3N)O[C@@H]2CO)C(N)C(O)[C@@H]1O (stereo partly shown) [Compound 197]
MIC (E coli wild type; [5]): 2 to 4 µg/mL (≈ 3.11 to 6.21 µM)
MIC (P aeruginosa): 32 µg/mL (≈ 49.7 µM)
MIC [1]: 1 µg/mL (≈ 1.55 µM)
MIC [2]: 2 µg/mL (≈ 3.11 µM)
MIC [3]: 1 to 2 µg/mL (≈ 1.55 to 3.11 µM)

gentamicin [reference compound]
MIC E. coli WT (E coli wild type; WT, Table 5 (Example 3)): 0.5 µg/mL
MIC E. coli AG106 AAC(2′)-Ia ([4]; AG106 AAC(2′)-Ia, Table 5 (Example 3)): 2 to 4 µg/mL
MIC E. coli pGB2armA armA ([4]; pGB2armA armA, Table 5 (Example 3)): >128 μg/ml
MIC M. abscessus ATCC 19977 WT (M. abscessus; ATCC 19977 WT, Table 5 (Example 3)): 2 to 4 µg/mL
MIC M. abscessus engineered Δeis2 (M. abscessus; engineered Δeis2, Table 5 (Example 3)): 2 µg/mL
MIC M. smegmatis SZ380 WT (M. smegmatis SZ380; SZ380 WT, Table 5 (Example 3)): 1 µg/mL
